According to patent US9695209B2, “Synthesis of amphiphilic calixarene glycoside detergents and use of same for extracting and stabilizing native functional membrane proteins” (CALIXAR, priority 2014, dated 2017):
Where two headings read alike, the source gives them in different places.

Assays:
[1] = Average particle size of aggregates by DLS (Dynamic Light Scattering); type: physicochemical
Procedure: FIGS. 3a) and 3b) are two diagrams showing the average particle size obtained by DLS (Dynamic Light Scattering) analysis of CALX173GALO compound (FIG. 3a) and CALX173GLUK compound (FIG. 3b) at respectively 0.47 and 0.08 mM.
FIGS. 3a and 3b show the aggregation state of CALX173GALO and CALX173GLUK. As illustrated, all the systems observed form aggregates of the micellar type.

[2] = target: T1, Bacteriorhodopsin protein (bR) (Halobacterium salinarum, UniProt P02945); assay: Stability test of bacteriorhodopsin protein over time (absorbance at 550 nm); details: after 1 month and a half exposure at 37° C. in the dark
T1 sequence (P02945 14-262): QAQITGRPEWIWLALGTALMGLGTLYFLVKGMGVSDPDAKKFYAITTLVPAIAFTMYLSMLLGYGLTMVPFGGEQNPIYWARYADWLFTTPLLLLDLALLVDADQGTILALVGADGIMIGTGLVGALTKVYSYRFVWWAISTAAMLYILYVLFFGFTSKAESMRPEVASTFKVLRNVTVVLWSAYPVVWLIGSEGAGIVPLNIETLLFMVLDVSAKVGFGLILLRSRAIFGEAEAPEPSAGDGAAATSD

[3] = target: A2A adenosine protein (Homo sapiens, UniProt P29274); assay: Test of solubilization of A2A membrane protein (Western Blot after 100 000 g centrifugation); details: for solubility (solubilization) of A2A adenosine protein: 4° C, protein 20 mg/ml
Sequence of A2A adenosine protein (P29274 whole entry): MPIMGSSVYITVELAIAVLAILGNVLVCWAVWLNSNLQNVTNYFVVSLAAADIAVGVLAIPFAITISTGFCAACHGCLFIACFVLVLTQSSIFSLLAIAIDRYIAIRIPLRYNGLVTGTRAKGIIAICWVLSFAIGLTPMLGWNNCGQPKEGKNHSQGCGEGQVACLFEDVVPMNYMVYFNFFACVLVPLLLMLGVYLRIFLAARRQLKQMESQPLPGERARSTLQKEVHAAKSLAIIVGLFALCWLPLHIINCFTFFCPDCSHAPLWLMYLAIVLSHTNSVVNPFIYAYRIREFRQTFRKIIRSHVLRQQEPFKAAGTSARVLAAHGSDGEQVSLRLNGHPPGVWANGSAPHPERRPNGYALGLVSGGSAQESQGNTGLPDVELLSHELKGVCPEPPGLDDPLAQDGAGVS
Procedure: Solubility Test of Protein of Interest: A2A Adenosine.
The protein content was set at 20 mg/ml (20 mM Tris-Cl pH 8.0, 150 mM NaCl, 10% Glycerol). The solubilization is effected at 4° C. The solubilized or non-solubilized protein fractions are separated by a 100 000 g centrifugation step for 1 hour at 4° C.

[4] = CMC (H2O) of known detergents as stated in figure legend; type: physicochemical; details: no source given
[5] = from VanAken et al. 1986; cited from earlier work

With “5,11,17-Tris{2-[4-(b-D-glucopyranosyl)-1H-1,2,3-triazol-1-yl]-ethyl}-25-heptoxy-26,27,28-trismethoxy-calix[4]arene [CALX173GLUK]” the “dparticules (average particle size by DLS)” value ([1]; at 0.08 mM) was 5.53 nm, the “absorbance at 550 nm of bR protein” value [2] was 0.75 and the “solubility (solubilization) of A2A adenosine protein” value (from here on “solubility (solubilization)”) ([3]; detergent at 8 CMC) was “nonexistent”. The “solubility (solubilization)” value ([3]; detergent at 20 CMC) was “enhances the solubilization”.

With “25-heptyloxy-26,27,28-tris(hydroxyl)calix-[4]-arene-5,11,17-tris(acetic acid) sodium salt [CALX173ACE]” the “CMC (H2O)” value [4] was 2.5 mM.

In the case of CCCCCCCOc1c2cccc1Cc1cc(CCO[C@@H]3O[C@H](CO)[C@H](O)[C@H](O)[C@H]3O)cc(c1OC)Cc1cc(CCO[C@@H]3O[C@H](CO)[C@H](O)[C@H](O)[C@H]3O)cc(c1OC)Cc1cc(CCO[C@@H]3O[C@H](CO)[C@H](O)[C@H](O)[C@H]3O)cc(c1OC)C2 [CALX173GALO, 5,11,17-Tris[2-(b-D-galactopyranosyloxy)ethyl]-25-heptoxy-26,27,28-trismethoxy-calix[4]arene], the “dparticules (average particle size by DLS)” value ([1]; at 0.47 mM) is reported as 5.46 nm, the “absorbance at 550 nm of bR protein” value [2] is reported as “around 0.4” and the “solubilization of A2A protein compared with reference compounds DDM and CALX173ACE” value ([3]; 20 CMC) is reported as “better”. The “solubility (solubilization)” value ([3]; detergent at 20 CMC) was “partial”.

In the case of CCCCCCCCCCCCO[C@@H]1O[C@H](CO)[C@@H](O[C@H]2O[C@H](CO)[C@@H](O)[C@H](O)[C@H]2O)[C@H](O)[C@H]1O [DDM, n-dodecyl-β-D-maltopyranoside, reference compound], the “CMC (H2O)” value [5] is listed as 0.17 mM, the “solubilization of A2A protein” value ([3]; 20 CMC, reference compounds) is listed as “about 20%” and the “solubility (solubilization)” value ([3]; detergent at 20 CMC) is listed as “partial”.

In the case of CCCCCCCCO[C@@H]1O[C@H](CO)[C@@H](O)[C@H](O)[C@H]1O [OG, Octyl Glucoside, reference compound], the “stability of the bR protein” value [2] is reported as “nonexistent”.

For “Maltose-Neopentyl Glycol [MNG-12, reference compound]”, the “absorbance at 550 nm of bR protein” value [2] was “around 0.4”.
